Source: ChEMBL document CHEMBL3797121, “Novel nucleoside-based antimalarial compounds” (Bioorg Med Chem Lett, 2016)

What was measured:
Plasmodium falciparum = assay: Antimalarial activity against erythrocytic stage of Plasmodium falciparum K1 after 18 hrs by [3H]-hypoxanthine incorporation assay; format: functional, organism-based
L6 = assay: Cytotoxicity against rat L6 cells; format: cell-based
[1] = Selectivity index, ratio of IC50 for rat L6 cells to IC50 for erythrocytic stage of Plasmodium falciparum K1; format: toxicity, cell-based; conditions: read-out: Ratio IC50

| IC50 (Plasmodium falciparum) | SMILES | IC50 (L6) | selectivity ratio [1] |
| --- | --- | --- | --- |
| 64.9 µM | CNc1nc(I)nc2c1ncn2[C@@H]1O[C@H](C)[C@@H](O)[C@H]1O | 137 µM | 2 |
| – | CCN(CC)CCCC(C)Nc1ccnc2cc(Cl)ccc12 (centres undefined) [CHLOROQUINE] | 120 µM | – |
| 17.5 µM | C[C@H]1O[C@@H](n2cnc3c(N)nc(Cl)nc32)[C@H](O)[C@@H]1O | 147 µM | 8 |
| 42 µM | C[C@H]1O[C@@H](n2cnc3c(N)nc(NN)nc32)[C@H](O)[C@@H]1O | 188 µM | 4 |
| 11.5 µM | CNc1nc(F)nc2c1ncn2[C@@H]1O[C@H](C)[C@@H](O)[C@H]1O | 236 µM | 21 |
| 9.01 µM | CNc1ncnc2c1ncn2[C@@H]1O[C@H](C)[C@@H](O)[C@H]1O | 266 µM | 30 |
| 33.5 µM | C[C@H]1O[C@@H](n2cnc3c(N)nc(C#N)nc32)[C@H](O)[C@@H]1O | 177 µM | 5 |
| 55.9 µM | C[C@H]1O[C@@H](n2cnc3c(N)nc(I)nc32)[C@H](O)[C@@H]1O | 110 µM | 2 |
| 31.2 µM | CNc1nc(C#N)nc2c1ncn2[C@@H]1O[C@H](C)[C@@H](O)[C@H]1O | 85 µM | 3 |
| 15.6 µM | C[C@H]1O[C@@H](n2cnc3c(N)nc(N)nc32)[C@H](O)[C@@H]1O | 338 µM | 22 |

| SMILES | IC50 (Plasmodium falciparum) | IC50 (L6) | selectivity ratio [1] |
| --- | --- | --- | --- |
| C[C@H]1O[C@@H](n2cnc3c(N)nc(F)nc32)[C@H](O)[C@@H]1O | 1 µM | 2.1 µM | 2 |
| C[C@H]1O[C@@H](n2cnc3c(N)nc(N=[N+]=[N-])nc32)[C@H](O)[C@@H]1O | 108 µM | 181 µM | 2 |
